From ChEMBL document CHEMBL1201862, “PubChem BioAssay data set” (2004)
Counter-ions that a name gives are not always drawn. Active and inactive are the calls of the source.

What was measured:
[1] = target: T1, Protein skinhead-1 (Caenorhabditis elegans, UniProt P34707); assay type: functional
T1 sequence (P34707 whole entry): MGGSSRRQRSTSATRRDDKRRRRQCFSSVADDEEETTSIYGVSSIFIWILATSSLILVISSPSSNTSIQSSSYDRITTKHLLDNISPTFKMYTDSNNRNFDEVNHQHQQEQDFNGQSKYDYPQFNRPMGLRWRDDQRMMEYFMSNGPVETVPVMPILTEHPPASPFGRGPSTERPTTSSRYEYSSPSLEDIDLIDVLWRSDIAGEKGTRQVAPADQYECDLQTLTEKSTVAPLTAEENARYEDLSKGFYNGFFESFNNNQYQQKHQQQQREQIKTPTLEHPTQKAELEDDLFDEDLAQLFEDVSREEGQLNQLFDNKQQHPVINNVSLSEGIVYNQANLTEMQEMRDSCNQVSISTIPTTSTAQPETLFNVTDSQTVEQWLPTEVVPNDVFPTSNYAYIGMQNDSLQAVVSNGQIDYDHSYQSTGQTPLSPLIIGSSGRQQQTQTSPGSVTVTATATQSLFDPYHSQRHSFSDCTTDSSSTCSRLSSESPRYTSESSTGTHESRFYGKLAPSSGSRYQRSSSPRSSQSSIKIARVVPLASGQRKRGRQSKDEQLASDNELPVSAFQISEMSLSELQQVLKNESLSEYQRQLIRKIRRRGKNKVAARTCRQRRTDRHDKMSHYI

[2] = HEp-2 cell cytotoxicity, dose response, cytotoxicity control for RSV inhibitor project, HTS (AID 2410); assay type: functional; conditions: human respiratory syncytial virus
[3] = target: T2, Sentrin-specific protease 8 (Homo sapiens, UniProt Q96LD8); assay type: functional
T2 sequence (Q96LD8 whole entry): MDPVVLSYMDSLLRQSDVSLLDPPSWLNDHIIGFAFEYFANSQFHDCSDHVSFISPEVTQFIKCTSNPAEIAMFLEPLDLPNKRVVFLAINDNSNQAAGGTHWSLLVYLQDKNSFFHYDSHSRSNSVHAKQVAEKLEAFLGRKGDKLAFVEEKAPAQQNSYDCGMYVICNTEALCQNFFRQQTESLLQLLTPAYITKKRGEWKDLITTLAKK

[4] = target: T2, Sentrin-specific protease 8; assay type: functional; remark: listed apart in the source
[5] = cells
[6] = target: T3, Small ubiquitin-related modifier 1 (Homo sapiens, UniProt P63165); assay: inhibitors of SUMO1 peptide binding, dose response, biochemical, fluorescence polarization, uHTS hits (AID 624382); assay type: functional; conditions: read-out: IC50_Mean
T3 sequence (P63165 whole entry): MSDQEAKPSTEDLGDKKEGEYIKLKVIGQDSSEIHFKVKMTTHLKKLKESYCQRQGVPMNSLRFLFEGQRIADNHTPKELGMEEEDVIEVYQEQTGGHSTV

[7] = target: T3, Small ubiquitin-related modifier 1; assay: inhibitors of SUMO1 partner interactions, dose response, biochemical, FRET (AID 624383); assay type: functional; conditions: read-out: IC50_Mean
[8] = target: T4, Fatty acid synthase (Homo sapiens, UniProt P49327); assay: FAS thioesterase domain inhibitors, dose response, biochemical, endpoint fluorescence intensity, uHTS hits (AID 624327); assay type: functional;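 further: fluorescence from hydrolysis of an O-methyl fluorescein acyl ester substrate by the enzyme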
T4 sequence (P49327 whole entry, the tested form may be a part): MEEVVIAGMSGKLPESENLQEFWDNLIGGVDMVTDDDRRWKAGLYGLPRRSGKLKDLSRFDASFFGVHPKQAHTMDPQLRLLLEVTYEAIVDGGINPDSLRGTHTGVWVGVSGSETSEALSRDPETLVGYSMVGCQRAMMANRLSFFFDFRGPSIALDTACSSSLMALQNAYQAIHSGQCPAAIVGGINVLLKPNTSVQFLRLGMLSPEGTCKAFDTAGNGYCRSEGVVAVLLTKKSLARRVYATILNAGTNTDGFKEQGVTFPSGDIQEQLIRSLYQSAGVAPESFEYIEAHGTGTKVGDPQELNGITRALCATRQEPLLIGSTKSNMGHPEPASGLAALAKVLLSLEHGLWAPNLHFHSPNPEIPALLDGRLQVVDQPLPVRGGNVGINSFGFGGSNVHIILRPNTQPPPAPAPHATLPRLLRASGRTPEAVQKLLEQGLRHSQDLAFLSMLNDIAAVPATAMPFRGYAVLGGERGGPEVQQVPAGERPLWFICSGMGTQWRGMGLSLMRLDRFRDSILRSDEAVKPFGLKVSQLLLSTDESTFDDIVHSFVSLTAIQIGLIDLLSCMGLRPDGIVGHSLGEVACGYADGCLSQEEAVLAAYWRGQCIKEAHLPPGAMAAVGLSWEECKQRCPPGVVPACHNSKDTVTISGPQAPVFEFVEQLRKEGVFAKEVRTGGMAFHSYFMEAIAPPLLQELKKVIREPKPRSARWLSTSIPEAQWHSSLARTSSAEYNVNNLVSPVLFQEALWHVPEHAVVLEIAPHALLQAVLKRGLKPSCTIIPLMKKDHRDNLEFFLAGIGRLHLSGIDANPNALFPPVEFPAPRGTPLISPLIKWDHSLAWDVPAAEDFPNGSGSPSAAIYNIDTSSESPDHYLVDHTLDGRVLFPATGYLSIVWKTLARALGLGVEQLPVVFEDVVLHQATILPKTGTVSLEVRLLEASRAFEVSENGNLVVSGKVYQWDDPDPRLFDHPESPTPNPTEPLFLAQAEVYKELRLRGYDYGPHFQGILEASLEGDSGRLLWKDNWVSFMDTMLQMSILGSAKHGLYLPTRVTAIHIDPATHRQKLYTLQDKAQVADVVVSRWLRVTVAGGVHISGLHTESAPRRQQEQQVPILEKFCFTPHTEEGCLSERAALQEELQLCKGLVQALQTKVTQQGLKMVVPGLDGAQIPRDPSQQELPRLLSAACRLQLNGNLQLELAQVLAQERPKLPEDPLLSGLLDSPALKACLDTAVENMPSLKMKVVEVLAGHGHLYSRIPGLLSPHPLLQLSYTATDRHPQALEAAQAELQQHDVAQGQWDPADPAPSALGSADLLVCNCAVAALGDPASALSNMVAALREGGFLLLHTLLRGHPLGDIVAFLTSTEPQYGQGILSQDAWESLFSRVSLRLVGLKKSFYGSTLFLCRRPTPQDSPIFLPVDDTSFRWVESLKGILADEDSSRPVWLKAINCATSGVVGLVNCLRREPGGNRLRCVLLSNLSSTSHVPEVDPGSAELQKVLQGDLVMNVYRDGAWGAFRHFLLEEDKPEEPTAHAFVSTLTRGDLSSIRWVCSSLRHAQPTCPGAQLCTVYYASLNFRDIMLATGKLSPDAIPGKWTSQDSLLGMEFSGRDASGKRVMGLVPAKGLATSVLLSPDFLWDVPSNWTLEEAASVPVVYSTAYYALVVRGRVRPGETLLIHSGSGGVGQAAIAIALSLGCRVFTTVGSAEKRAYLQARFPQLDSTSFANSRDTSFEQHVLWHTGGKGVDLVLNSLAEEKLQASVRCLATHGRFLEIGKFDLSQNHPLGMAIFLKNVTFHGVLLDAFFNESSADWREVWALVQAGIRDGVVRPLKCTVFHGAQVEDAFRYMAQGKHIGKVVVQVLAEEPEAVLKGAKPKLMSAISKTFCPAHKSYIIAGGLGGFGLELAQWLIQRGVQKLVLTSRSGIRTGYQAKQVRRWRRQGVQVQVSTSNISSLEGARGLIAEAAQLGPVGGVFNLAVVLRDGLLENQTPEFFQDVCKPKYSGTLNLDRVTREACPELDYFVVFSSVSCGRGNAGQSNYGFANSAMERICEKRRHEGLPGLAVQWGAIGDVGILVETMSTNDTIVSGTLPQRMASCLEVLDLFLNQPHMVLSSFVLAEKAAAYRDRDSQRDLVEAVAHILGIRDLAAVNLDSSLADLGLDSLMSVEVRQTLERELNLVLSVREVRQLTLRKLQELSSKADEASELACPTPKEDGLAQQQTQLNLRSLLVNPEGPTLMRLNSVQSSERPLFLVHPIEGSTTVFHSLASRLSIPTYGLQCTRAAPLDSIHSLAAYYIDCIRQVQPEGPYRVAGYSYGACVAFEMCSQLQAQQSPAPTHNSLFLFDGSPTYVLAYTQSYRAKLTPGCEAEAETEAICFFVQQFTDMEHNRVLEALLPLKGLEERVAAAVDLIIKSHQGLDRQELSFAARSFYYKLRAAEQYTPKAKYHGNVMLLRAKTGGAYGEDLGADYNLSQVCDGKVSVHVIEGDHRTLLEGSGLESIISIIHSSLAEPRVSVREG

[9] = target: T4, Fatty acid synthase; assay: FAS thioesterase domain inhibitors, dose response, biochemical, kinetic fluorescence intensity (AID 624326); assay type: functional;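 further: rate of fluorescence rise from hydrolysis of a fluorogenic O-methyl fluorescein ester substrate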
[10] = system: Escherichia coli; assay: microbe, parasite or virus in culture
[11] = system: Escherichia coli; assay: microbe, parasite or virus in culture; remark: listed apart in the source
[12] = miR-122 activators in hepatoma reporter cells, dose response, cell-based, Huh7 psiCHECK-miR122, Renilla luciferase, cherry-picked (AID 651956); assay type: functional;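 further: huh7 hepatoma cells stably carrying a psiCHECK-2 miR-122 sensor plasmid; renilla luciferase signal reporting endogenous miR-122 activity after 48 h compound exposure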
[13] = inhibitors of HIV Env-driven cell fusion, dose response, cherry-pick (AID 652057); assay type: functional, cell-based
[14] = CEM21 lymphoblast cell cytotoxicity, dose response, cytotoxicity control for viral fusion inhibitor project, CellTiter-Glo luminescence, cherry-picked (AID 652042); assay type: functional, cell-based;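 further: potency for signal decrease meaning cytotoxicity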
[15] = ZM109 Env clade C HIV-1 fusion inhibitors, dose response, HeLa effector, CEM target cells, luciferase, cherry-pick (AID 652058); assay type: functional, cell-based
[16] = off-target signal loss in HeLa-CEM21 co-culture – HeLa F-luc CTL cells, cherry-picked, counter-screen for HIV-1 Env fusion inhibitor project, dose response (AID 652040); assay type: functional, cell-based;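 further: potency for signal decrease marking cytotoxic or nonspecific inhibition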
[17] = inhibitors of clade B AD8 Env fusion, dose response, cell-based, cherry-pick (AID 652062); assay type: functional;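 further: luciferase signal from cell-cell fusion driven by HIV-1 clade B AD8 Env; potency is for inhibitors of fusion seen as a drop in luminescence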
[18] = cells; assay type: functional, cell-based
[19] = target: T5, Trace amine-associated receptor 1 (Homo sapiens, UniProt Q96RJ0); assay: Fluorescence-based cell-based high throughput dose response assay to identify agonists of the human trace amine associated receptor 1 (TAAR1).; assay type: functional
T5 sequence (Q96RJ0 whole entry): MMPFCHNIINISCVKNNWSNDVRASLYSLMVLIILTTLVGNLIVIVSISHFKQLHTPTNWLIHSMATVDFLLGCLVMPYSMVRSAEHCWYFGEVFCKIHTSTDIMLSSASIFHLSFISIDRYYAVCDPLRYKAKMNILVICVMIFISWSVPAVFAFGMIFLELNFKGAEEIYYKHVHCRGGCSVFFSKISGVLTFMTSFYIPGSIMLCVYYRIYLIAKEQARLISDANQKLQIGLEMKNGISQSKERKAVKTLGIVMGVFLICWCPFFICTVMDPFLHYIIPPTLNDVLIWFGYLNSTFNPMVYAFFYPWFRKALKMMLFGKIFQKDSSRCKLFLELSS

[20] = target: T5, Trace amine-associated receptor 1; assay: Counterscreen for agonists of the human trace amine associated receptor 1 (hTAAR1): Fluorescence-based cell-based high throughput dose response assay to identify hTAAR1 agonist that also desensitize TAAR1 receptor response.; assay type: functional
[21] = cells; assay type: functional, cell-based; remark: listed apart in the source

With `O=C(Nc1cc2nn(-c3ccccc3)nc2cc1Cl)c1ccco1` the IC50 [1] was > 100 µM (inactive).

In the case of `Fc1ccccc1-c1nc(-c2ccncc2)no1`, the IC50 [1] is reported as 25.1 µM (active).

In the case of `CCn1c2ccc(C)cc2c2nnc(NN)nc21`, the CC50 [2] is reported as 32.3 µM (active), the IC50 [3] is reported as > 100 µM (inactive) and the IC50 [4] is reported as 8.84 µM (active). The IC50 [5] was 17.4 µM (active).

With `CC(=O)c1c(C)[nH]c(C(=O)OCC(=O)c2ccc3c(c2)NC(=O)CO3)c1C` the IC50 [6] was > 66.6 µM (inactive) and the IC50 [7] was 6.39 µM (active).

In the case of `COCCCNC(=O)CC1C[C@H](C(=O)N2CCOCC2)[C@@]2(CCC3CCCC3)c3[nH]c4ccc(OC)cc4c3CCN2C1=O` (stereo not given in full), the IC50 [8] is reported as 11.5 µM (active) and the IC50 [9] is reported as 7.56 µM (active).

In the case of `Cc1n[nH]c(-c2cccnc2)c1N=NN(C)C`, the AC50 [10] is reported as 0.628 µM (active) and the AC50 [11] is reported as 2.15 µM (active).

With `C/C=C/c1ccc([C@@H]2[C@@H](CO)N(C(C)=O)[C@@H]2CN(C)C(=O)c2ccccn2)cc1` the AC50 [12] was 39.6 µM (active).

For `CN1C(=O)c2cc(NC(=O)Nc3cccc(Cl)c3)ccc2OC[C@H]2O[C@@H](CC(=O)NCCc3ccncc3)CC[C@H]21`, the AC50 [12] was 31.4 µM (active).

For `CCCCCNC(=O)C(c1ccncc1)n1c(=O)c(-c2cc3ccccc3[nH]2)nc2ccccc21` (stereo not given), the AC50 [13] was 2.62 µM (active), the AC50 [14] was 31.9 µM (active) and the AC50 [15] was 4.68 µM (active). For the same compound, the AC50 [16] was 4 µM (active) and the AC50 [17] was 7.8 µM (active).

In the case of `COc1ccc(-c2cc(=O)c3c(C)cc(O)cc3o2)cc1`, the IC50 [6] is reported as > 66.6 µM (inactive) and the IC50 [7] is reported as 8.68 µM (active).

In the case of `c1ccc2c(CC3=NCCN3)cccc2c1` [NAPHAZOLINE HYDROCHLORIDE], the IC50 [18] is reported as > 29.9 µM (inactive), the EC50 [19] is reported as 0.14 µM (active) and the IC50 [20] is reported as 1.15 µM (active). For the same compound, the EC50 [21] was > 29.9 µM (inactive).
